From US20260265199A1, “CRYSTALLINE FORMS OF (R)-2-AMINO-5-(4-(2-(3,5-DIFLUOROPHENYL)-2-HYDROXYACETAMIDO)-2-METHYLPHENYL)-N-ISOPROPYLNICOTINAMIDE AND METHODS FOR USING THE SAME” (HIBERCELL, INC., priority 2023, published 2026)
Entries after “also recorded” stand apart in the source; their conditions may differ. Like-named read-outs stand apart in the source and are kept apart here.

Tests used:
Assay type in all cases: physicochemical
[1] = Relative humidity stressing of Form D; conditions: ambient
[2] = Dynamic vapor sorption (5% to 95% RH, Example 26 method)
Experimental: Automated vapor sorption (VS) data were collected on a Surface Measurement System DVS Intrinsic instrument, or a VTI SGA-100 instrument. Samples were not dried prior to analysis. Sorption and desorption data were collected over a range from 5% to 95% RH at 10% RH increments under a nitrogen purge. The equilibrium criterion used for analysis was less than 0.0100% weight change in 5 minutes with a maximum equilibration time of 3 hours. Data were not corrected for the initial moisture content of the samples.

[3] = Solubility study of Form A of the compound of formula (I) in solvents (aliquot addition, visual); conditions: thermodynamic from solid, room temperature, read-out: Approximate Solubility
Experimental: A solubility study of Form A in various solvent systems was conducted according to the following protocol: aliquots of the test solvent systems were added to weighed samples of Form A, prepared according to Example 27, at room temperature. The resulting mixtures were sonicated between solvent additions to facilitate dissolution. Complete dissolution of the test material was determined visually. The solubility was estimated based on the total solvent used to provide complete dissolution.

[4] = Water activity study of Form A of the compound of formula (I); conditions: for Result (XRPD of solids): ambient; for Solid form (XRPD) after storage in solvent mixture: ambient conditions
Experimental: The water activity study was conducted using the following protocol: solutions were prepared by adding a sufficient amount of Form A, prepared according to Example 27, to a given solvent mixture such that excess solids were present. The mixture was then agitated for a predetermined period of time (Table 31) in a sealed vial under ambient conditions. After agitation, the solids were isolated for analysis and characterized using XRPD.

In the case of Cc1cc(NC(=O)[C@H](O)c2cc(F)cc(F)c2)ccc1-c1cnc(N)c(C(=O)NC(C)C)c1 [Form D, (R)-2-amino-5-(4-(2-(3,5-difluorophenyl)-2-hydroxyacetamido)-2-methylphenyl)-N-isopropylnicotinamide], the Observation ([1]; 75% RH, 4 days) is reported as “Free flowing”, the “Result (XRPD form)” value ([1]; 75% RH, 4 days) is reported as “remained physically stable; also recorded: Form D” and the Observation ([1]; 97% RH, 20 days) is reported as “Free flowing”. The “Result (XRPD form)” value ([1]; 97% RH, 20 days) was “no phase changed had occurred; also recorded: remained physically stable; also recorded: Form D”, the “Solid form recovered from the DVS experiment (XRPD)” value [2] was “remained as Form D” and the “Weight gain and loss through the sorption/desorption cycle (DVS)” value ([2]; 5 to 95% RH) was “approximately 1.9%”. For the same compound, the “Hygroscopicity (DVS)” value ([2]; from 5 to 95% RH) was “limited hygroscopicity”.

Work on Cc1cc(NC(=O)[C@H](O)c2cc(F)cc(F)c2)ccc1-c1cnc(N)c(C(=O)NC(C)C)c1 [Form A of the compound of formula (I), (R)-2-amino-5-(4-(2-(3,5-difluorophenyl)-2-hydroxyacetamido)-2-methylphenyl)-N-isopropylnicotinamide] yielded a solubility ([3]; organic solvent or mixture, acetone) of over 115 mg/mL, a solubility ([3]; organic solvent or mixture, acetonitrile) of 12 mg/mL and a solubility ([3]; organic solvent or mixture, chloroform) of under 3 mg/mL. It also gave a solubility ([3]; organic solvent or mixture, diethyl ether) of under 2 mg/mL, a solubility ([3]; organic solvent or mixture, ethanol) of 49 mg/mL and a solubility ([3]; organic solvent or mixture, ethyl acetate) of 26 mg/mL. The solubility ([3]; organic solvent or mixture, heptane) was under 3 mg/mL, the solubility ([3]; organic solvent or mixture, isopropyl alcohol) was 14 mg/mL and the solubility ([3]; organic solvent or mixture, methanol) was 103 mg/mL. For the same compound, the solubility ([3]; organic solvent or mixture, tetrahydrofuran) was over 150 mg/mL, the solubility ([3]; organic solvent or mixture, toluene) was under 4 mg/mL and the solubility ([3]; water) was under 3 mg/mL. For the same compound, the “Result (XRPD of solids)” value ([4]; IPA/water 90:10 v/v, 0.67 aw, 27 days) was “Form H”, the “Result (XRPD of solids)” value ([4]; MeCN/water 92:8 v/v, 0.82 aw, 4 days) was “Form C” and the “Solid form (XRPD) after storage in solvent mixture” value (shortened to “Solid form (XRPD) after storage”) ([4]; acetonitrile/water (92:8 v/v), four days) was “Form C”. For the same compound, the “Solid form (XRPD) after storage” value ([4]; isopropanol/water (90:10 v/v), 27 days) was “Form H”, the “Solid form (XRPD) after storage” value ([4]; isopropanol/water (94:6 v/v), four days) was “mixture of Form A and Form H” and the “Result (XRPD of solids)” value ([4]; water/acetone 80:20 v/v, 0.96 aw, 4 days) was “Form A*”. For the same compound, the “Solid form (XRPD) after storage” value ([4]; water/acetone (80:20 v/v), four days) was “Form A”.
